Laboratory results taken from EP1388586A2, “Identification of broadly reactive DR restricted epitopes” (priority 1998, dated 1999).
Like-named read-outs stand apart in the source and are kept apart here. Ends that are not written are not given here.

Key:
[1] = molecular target: T1, DRB1*1501 (DR2w2b) (Homo sapiens, UniProt P01903+P01911); assay: Class II peptide-binding assay, DR2w2b (DR2w2B1)
T1 construct: expressed in transfected cells; host or cells: L466.1 transfected fibroblasts
Experimental: (§1) Class II peptide-binding assays. […] These assays were chosen as to be representative of the most common DR alleles.
(§2) In appropriate stoichiometric conditions, the IC50 of an unlabeled test peptide to the purified DR is a reasonable approximation of the affinity of interaction (Kd). Peptides were tested in two to four completely independent experiments. […] Final detergent concentration in the incubation mixture was 0.05% Nonidet P-40. Assays were performed at pH 7.0 with the exception of DR3, which was performed at pH 4.5, and DRw53, which was performed at pH 5.0.
(§3) All subsequent inhibition and direct binding assays were the performed using these class II concentrations.

[2] = molecular target: T2, DRB5*0101 (DR2w2a) (Homo sapiens, UniProt P01903+Q30154); assay: Class II peptide-binding assay, DR2w2a (DR2w2B2);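 note: competitive binding assay: unlabeled peptide inhibiting binding of a radiolabeled probe peptide to purified DR molecules at pH 7.0, IC50 approximating Kd, lower means stronger binding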
T2 construct: used as sources of human HLA class II molecules; endogenous in cells; host or cells: GM3107 (EBV-transformed homozygous B cell line)

[3] = molecular target: T3, DRB1*1101 (DR5w11) (Homo sapiens, UniProt P01903+P01911, A100R/A169T/A87E/I96F/K41T/L162R/M171V/P40S/Q125H/Q178H/Q39Y/Q99D/R42S/S66Y/T262R/V115G/W38E); assay: Class II peptide-binding assay, DR5w11;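 note: competition by unlabeled test peptide against iodinated probe peptide binding to affinity-purified HLA-DR, class II amount titrated beforehand, half-maximal inhibitory concentration read as approximate Kd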
T3 construct: used as sources of human HLA class II molecules; endogenous in cells; host or cells: SWEIG (EBV-transformed homozygous B cell line)
T3 sequence (P01903 26-254, other chains not shown): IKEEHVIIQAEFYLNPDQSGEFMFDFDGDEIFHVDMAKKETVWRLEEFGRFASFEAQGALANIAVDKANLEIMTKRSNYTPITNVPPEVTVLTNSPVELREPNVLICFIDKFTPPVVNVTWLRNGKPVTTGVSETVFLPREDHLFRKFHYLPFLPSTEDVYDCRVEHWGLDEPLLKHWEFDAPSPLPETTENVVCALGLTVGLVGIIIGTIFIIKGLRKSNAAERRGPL

[4] = molecular target: DRB1*1302 (DR6w19) (Homo sapiens, UniProt P01903+P01911, A100E/A169T/K41T/L162R/M171V/P40S/Q125H/Q178H/Q39Y/Q99D/R42S/S66N/T262R/V115G/W38E/Y61H); type: binding
DRB1*1302 (DR6w19), sequence (P01903 26-254, other chains not shown): as above
Experimental: The lysates were cleared of debris and nuclei by centrifugation at 10,000 x g for 20 min.
Affinity purification of HLA-DR molecules.
as §1
(§4) Radiolabeled peptides were iodinated using the chloramine-T method. […] In appropriate stoichiometric conditions, the IC50 of an unlabeled test peptide to the purified DR is a reasonable approximation of the affinity of interaction (Kd). Peptides were tested in two to four completely independent experiments. […] Final detergent concentration in the incubation mixture was 0.05% Nonidet P-40. Assays were performed at pH 7.0 with the exception of DR3, which was performed at pH 4.5, and DRw53, which was performed at pH 5.0.
as §3
DR6w19. The DR6w19 assay utilizes as the source of class II molecules the EBV transformed homozygous cell line H0301, which co-expresses DRB30301 (DR52a). While the radiolabeled ligand used in the DR6w19 assay is different than that used for the DR52a assay, the ligand is related (i.e., is a single substitution analog) to a high affinity DR52a binder. As was done in the case of DR4w15, the specificity of the assay was investigated by analyzing the binding capacity of a panel of naturally occurring peptides for DR6w19 and DR52a.

[5] = molecular target: DRB1*0701 (DR7) (Homo sapiens, UniProt P01903+P01911, A100R/A102G/A103Q/D57E/D86V/E43K/F76Y/K127E/L162R/M171V/P40G/Q125H/Q99D/R33Q/R42Y/R54Q/S133A/S66F/T210M/V115G/Y107V/Y59L/Y89S); assay: Class II peptide-binding assay, DR7;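 note: unlabeled peptides compete with an iodinated probe peptide for binding to affinity-purified HLA-DR at neutral pH, DR amount titered to bind a small tracer fraction, IC50 approximating Kd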
[6] = molecular target: T4, DRB1*0101 (DR1) (Homo sapiens, UniProt P01903+P01911, A100R/D57E/F55L/F60I/F76Y/I96L/L162R/M171V/P40L/Q125E/R42F/V115G/Y59C); assay: Class II peptide-binding assay, DR1;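 note: competition assay: unlabeled test peptides inhibit binding of a radiolabeled probe peptide to purified DR, with half-maximal inhibition taken as an approximate dissociation constant Kd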
T4 construct: used as sources of human HLA class II molecules; endogenous in cells; host or cells: LG2 (EBV-transformed homozygous B cell line)

[7] = molecular target: T5, DRB1*0802 (DR8w2) (Homo sapiens, UniProt P01903+P01911, A100R/A103L/A169T/F76Y/H45Y/I96F/K41T/L162R/M171V/P40S/Q125H/Q178H/Q39Y/Q99D/R218S/R42G/S66Y/V115G/W38E); assay: Class II peptide-binding assay, DR8w2
T5 construct: used as sources of human HLA class II molecules; endogenous in cells; host or cells: OLL (EBV-transformed homozygous B cell line)
Experimental: as §1, §4, §3
DR8w2 and DR8w3. The β1 specificity of the DR8w2 and DR8w3 assays is obvious in that no β3 (and/or B4 and β5) molecule is expressed.

[8] = molecular target: DRB1*0405 (DR4w15) (Homo sapiens, UniProt P01903+P01911, A100R/A169T/D86S/F76Y/I96L/K127E/L162R/M171V/N62H/P40V/Q125Y/R42H/S133A/S149N/S66Y/V115G/V209L/W38E); assay: Class II peptide-binding assay, DR4w15
Experimental: as §1, §4, §3
DR4w15. The β4 product DRw53 is co-expressed with DR4w15 and the determination of the specificity of the DR4w1 binding assay is complicated in that the same radiolabeled ligand is used for both the DR4w15 and DRw53 binding assays.

[9] = test system: panel of purified HLA DR molecules; type: binding, human;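 note: competitive inhibition of radiolabeled probe peptide binding to purified HLA DR molecules, with inhibitory potency of unlabeled peptides taken as an approximation of affinity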
Experimental: as §1, §4, §3

[10] = molecular target: T6, DRB1*0401 (DR4w4) (Homo sapiens, UniProt P01903+P01911, A100K/A169T/F76Y/I96L/K127E/L162R/M171V/N62H/P40V/Q125Y/R42H/S133A/S149N/S66Y/V115G/V209L/W38E); assay: Class II peptide-binding assay, DR4w4;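 note: unlabeled test peptides compete with a radiolabeled probe peptide for binding to affinity-purified HLA-DR, with DR amount titrated to capture a small fraction of label, IC50 approximating Kd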
T6 construct: used as sources of human HLA class II molecules; endogenous in cells; host or cells: PREISS (EBV-transformed homozygous B cell line)

[11] = molecular target: T7, DRB1*0901 (DR9) (Homo sapiens, UniProt P01903+P01911, A100R/A103E/D57H/D86V/F55Y/F60I/F76Y/I96F/K127E/L162R/M171V/P40D/Q125H/Q99R/R33Q/R42F/S133A/S66N/T210M/V115G/W38K/Y107V/Y59G/Y89S); assay: Class II peptide-binding assay, DR9; details: Table V A) Non Predictions; read-out: Binding Capacity DR9
T7 construct: used as sources of human HLA class II molecules; endogenous in cells; host or cells: HTC9074 (EBV-transformed homozygous B cell line); gift of Dr. Paul Harris
Experimental: as §1, §2, §3

[12] = molecular target: T8, DRB1*0301 (DR3w17) (Homo sapiens, UniProt P01903+P01911, A100K/A102G/A103R/A169T/F55Y/I96L/K41T/L162R/M171V/P40S/Q125H/Q178H/Q39Y/R42S/S66N/T106N/T262R/W38E/Y61H); assay: Class II peptide-binding assay, DR3 (pH 4.5); details: purified HLA DR3; read-out: DR3 nM (In IC50 Format);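 note: unlabeled peptide competing with a radiolabeled probe peptide for binding to affinity-purified HLA-DR3, IC50 regarded as an approximation of Kd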
T8 construct: used as sources of human HLA class II molecules; endogenous in cells; host or cells: MAT (EBV-transformed homozygous B cell line)
T8 sequence (P01903 26-254, other chains not shown): as above

[13] = molecular target: T9, DRB10404 (DR4w14) (Homo sapiens, UniProt P01903+P01911, A100R/A169T/F76Y/I96L/K127E/L162R/M171V/N62H/P40V/Q125Y/R42H/S133A/S149N/S66Y/V209L/W38E); assay: Class II peptide-binding assay, DR4w14; details: purified HLA DR4w14; read-out: DR4w14 nM (In IC50 Format);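 note: unlabeled peptides compete with a radiolabeled probe for binding to affinity-purified HLA-DR, neutral pH, class II amount titrated to bind a small fraction of label, IC50 approximates Kd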
T9 construct: used as sources of human HLA class II molecules; endogenous in cells; host or cells: BIN40 (EBV-transformed homozygous B cell line)
Experimental: as §1, §2, §3

[14] = read-out: In IC50 Format DR2w2B1 nM, Table VIII, values in parentheses read as lower bounds
[15] = read-out: In IC50 Format DR5w11 nM, Table VIII, values in parentheses read as lower bounds
[16] = read-out: In IC50 Format DR6w19 nM, Table VIII, values in parentheses read as lower bounds
[17] = read-out: In IC50 Format DR7 nM, Table VIII, values in parentheses read as lower bounds
[18] = read-out: In IC50 Format DR1 nM, Table VIII, values in parentheses read as lower bounds
[19] = read-out: In IC50 Format DR2w2B2 nM, Table VIII, values in parentheses read as lower bounds
[20] = read-out: In IC50 Format DR8w2 nM, Table VIII, values in parentheses read as lower bounds
[21] = Table V B) Correct Predictions, read-out: Binding Capacity (IC50% nM) DR4w15
[22] = Table V A) Non Predictions, read-out: Binding Capacity DR1
[23] = Table V A) Non Predictions, read-out: Binding Capacity DR4w4
[24] = Table V A) Non Predictions, read-out: Binding Capacity DR4w15
[25] = Table V A) Non Predictions, read-out: Binding Capacity DR5w11
[26] = Table V A) Non Predictions, read-out: Binding Capacity DR8w2
[27] = Table V A) Non Predictions, 12 DR molecules listed

CC[C@H](C)[C@H](N)C(=O)N[C@@H](CCCCN)C(=O)N[C@@H](Cc1c[nH]c2ccccc12)C(=O)N[C@@H](CCSC)C(=O)N[C@@H](C)C(=O)N[C@@H](CC(C)C)C(=O)N[C@@H](CCC(=O)O)C(=O)N[C@@H](CO)C(=O)N[C@H](C(=O)N[C@@H](CC(C)C)C(=O)N[C@@H](CCCNC(=N)N)C(=O)N[C@@H](CCCNC(=N)N)C(=O)N[C@@H](CCCNC(=N)N)C(=O)N[C@@H](Cc1ccccc1)C(=O)N[C@H](C(=O)O)[C@@H](C)O)[C@@H](C)CC [Peptide 39.0368]
IC50 ([1]; Table VIII, values in parentheses read as lower bounds, read-out: In IC50 Format DR2w2B1): 10.6 nM

CC[C@H](C)[C@H](NC(=O)[C@H](CCSC)NC(=O)[C@H](Cc1c[nH]c2ccccc12)NC(=O)[C@@H](N)CS)C(=O)N[C@@H](CC(=O)O)C(=O)N[C@@H](CO)C(=O)N[C@@H](CCC(=O)O)C(=O)N[C@@H](CS)C(=O)N[C@@H](CCCNC(=N)N)C(=O)N1CCC[C@H]1C(=O)N[C@@H](CCCNC(=N)N)C(=O)N[C@@H](Cc1ccccc1)C(=O)N[C@@H](CCCNC(=N)N)C(=O)N[C@@H](CCC(=O)O)C(=O)N[C@@H](CC(C)C)C(=O)O [Peptide 39.0369]
IC50 [1, 14]: > 15200 nM | IC50 ([2]; Table VIII, values in parentheses read as lower bounds, read-out: In IC50 Format DR2w2B2): 1330 nM | IC50 [3, 15]: > 25000 nM | IC50 [4, 16]: > 35000 nM | IC50 [5, 17]: > 17900 nM

ARLLDIDETEYHADG [Peptide 39.0366]
IC50 [6, 18]: 50000 nM | IC50 [1, 14]: > 15200 nM | IC50 [2, 19]: > 28600 nM | IC50 [3, 15]: > 25000 nM | IC50 [4, 16]: > 35000 nM | IC50 [5, 17]: > 14700 nM | IC50 [7, 20]: > 54400 nM

RVYQEPQVSPPQRAET [Peptide 1136.59.01a]
IC50 ([6]; Table V B) Correct Predictions, read-out: Binding Capacity (IC50% nM) DR1): 130 nM | IC50 [8, 21]: 3140 nM | Total Alleles Bound [9]: 3

LFHYYFLSEKAPGSTV [Peptide 1136.04]
IC50 [6, 22]: 24 nM | IC50 ([1]; Table V A) Non Predictions, read-out: Binding Capacity DR2w2b): 1260 nM | IC50 [10, 23]: 20 nM | IC50 [8, 24]: 563 nM | IC50 [3, 25]: 69 nM | IC50 ([5]; Table V A) Non Predictions, read-out: Binding Capacity DR7): 3330 nM | IC50 [7, 26]: 55 nM | IC50 [11]: 2880 nM | additional DR types bound ([9]; "non-predictions" peptides, beyond DR1, 4w4 or 7): DR2w2 β2, DR4w15, 5w11 and 8w2 | Total Alleles Bound [9, 27]: 6

QEIDPLSYNYIPVNSN [Peptide 1136.55]
IC50 [8, 21]: 271 nM | IC50 ([3]; Table V B) Correct Predictions, read-out: Binding Capacity (IC50% nM) DR5w11): 4540 nM | IC50 ([4]; Table V B) Correct Predictions, read-out: Binding Capacity (IC50% nM) DR6w19): 5000 nM | IC50 ([5]; Table V B) Correct Predictions, read-out: Binding Capacity (IC50% nM) DR7): 2450 nM | Total Alleles Bound [9]: 3

CC[C@H](C)[C@H](NC(=O)[C@H](CC(C)C)NC(=O)[C@H](C)NC(=O)[C@@H](N)CC(C)C)C(=O)N[C@@H](Cc1c[nH]cn1)C(=O)N[C@@H](Cc1c[nH]cn1)C(=O)N[C@@H](CC(N)=O)C(=O)N[C@H](C(=O)N[C@@H](Cc1c[nH]cn1)C(=O)N[C@@H](CC(C)C)C(=O)N[C@@H](CS)C(=O)N[C@@H](Cc1ccccc1)C(=O)N[C@H](C(=O)N[C@@H](Cc1c[nH]cn1)C(=O)N[C@H](C(=O)O)[C@@H](C)O)C(C)C)[C@@H](C)O [Peptide 39.0352]
IC50 [1, 14]: 91.9 nM | IC50 [3, 15]: 8000 nM | IC50 [4, 16]: 4.7 nM | IC50 [5, 17]: 1250 nM | IC50 [7, 20]: 1480 nM

CC[C@H](C)[C@H](NC(=O)[C@H](Cc1ccc(O)cc1)NC(=O)[C@@H]1CCCN1C(=O)[C@H](CC(=O)O)NC(=O)[C@H](CCC(=O)O)NC(=O)[C@H](CC(C)C)NC(=O)[C@@H](NC(=O)[C@H](C)N)C(C)C)C(=O)N[C@@H](CC(C)C)C(=O)N[C@@H](CC(C)C)C(=O)N[C@H](C(=O)N[C@@H](CO)C(=O)N[C@@H](CO)C(=O)N[C@@H](CCCCN)C(=O)N[C@H](C(N)=O)C(C)C)C(C)C [Peptide 753.01]
IC50 ([6]; purified HLA DR1, read-out: DR1 nM (In IC50 Format)): 23.8 nM | IC50 ([1]; purified HLA DR2w2β1, read-out: DR2w2β1 nM (In IC50 Format)): 36.4 nM | IC50 ([2]; purified HLA DR2w2β2, read-out: DR2w2B2 nM (In IC50 Format)): 2860 nM | IC50 [12]: 75000 nM | IC50 ([10]; purified HLA DR4w4, read-out: DR4w4 nM (In IC50 Format)): 9000 nM | IC50 [13]: 333 nM | IC50 ([3]; purified HLA DR5w11, read-out: DR5w11 nM (In IC50 Format)): 6670 nM | IC50 ([5]; purified HLA DR7, read-out: DR7 nM (In IC50 Format)): 439 nM

CC(C)C[C@H](NC(=O)[C@H](C)NC(=O)[C@H](CCC(N)=O)NC(=O)[C@H](Cc1c[nH]cn1)NC(=O)[C@@H]1CCCN1C(=O)[C@H](CC(N)=O)NC(=O)[C@H](CCCNC(=N)N)NC(=O)[C@H](Cc1ccccc1)NC(=O)[C@H](CC(C)C)NC(=O)[C@H](CCC(N)=O)NC(=O)[C@H](CC(=O)O)NC(=O)[C@@H](N)Cc1c[nH]c2ccccc12)C(=O)N[C@@H](CC(C)C)C(=O)N[C@@H](Cc1c[nH]cn1)C(=O)N[C@H](C(=O)O)[C@@H](C)O [Peptide 39.0354]
IC50 [6, 18]: > 50000 nM | IC50 [1, 14]: 6070 nM | IC50 [2, 19]: > 28600 nM | IC50 [3, 15]: > 25000 nM | IC50 [5, 17]: > 14700 nM | IC50 [7, 20]: > 54400 nM

WLFPRFKFVWVTYASW [Peptide 1136.44.01]
IC50 [6, 22]: 526 nM | IC50 [10, 23]: 780 nM | IC50 [8, 24]: 6550 nM | IC50 [3, 25]: 4000 nM | IC50 [7, 26]: 6360 nM | Total Alleles Bound [9, 27]: 2
